Assay results from patent US20150017185A1, “METHOD TO IMPROVE THE IMMUNE FUNCTION OF T CELLS” (UCL BUSINESS PLC, priority 2011, published 2015).

How the values were obtained:
[1] = system: CD8+ CD45RA/CD27 T cell subsets; assay: Proliferation assay (Ki67 staining) with PDL-1/2 blockade and p38 inhibitor; assay type: cell-based, human; details: CD8+ T cells at all four stages of differentiation (N, CM, EM, EMRA); 4 days anti-CD3 and irradiated autologous APCs; 10 μg/ml PDL1/2 blocking antibodies, 500 nM BIRB796; 4 donors
Experimental: It was investigated whether either PD-1 or p38 signalling pathways contributed to the decreased proliferative activity of EMRA CD8^+ T cells. The four CD45RA/CD27 defined T cell subsets were isolated and then stimulated with anti-CD3 antibody and irradiated autologous APCs in the presence of either 10 μg/ml PDL1/2 blocking antibodies, 500 nM BIRB796 or both inhibitors together. Proliferative activity was determined by staining with Ki67 antibody. Representative histograms for the EMRA subset with and without the inhibitors is shown in FIG. 4A, while pooled results from all four subsets from 4 separate donors is shown in FIG. 4B.
PBMCs or sorted CD8^+ T cells were stimulated with 0.5 μg/ml plate coated anti-CD3 (OKT3) for 4 days and proliferation was assessed by staining for the nuclear antigen Ki67 that is expressed by cells at all stages of the cell cycle.
(§1) Signalling through PD-1 on purified total CD8^+ and CD27/CD45RA defined CD8^+ subsets was blocked by adding 10 μg/ml each of anti-PD-L1 (29E.2A3.C6) and anti-PD-L2 (24F.10C12.G12), or 10 μg/ml each of IgG2a (Mg2a-53) or IgG2b (MPC-11) isotype control antibodies (Abcam) at the start of the 4 day stimulation period with anti-CD3 (purified OKT3, 0.5 μg/ml) and irradiated APCs. The p38 inhibitor BIRB796 was added to the 4 day cultures at a final concentration of 500 nM and 0.1% DMSO was used as control.

[2] = system: CD8+ CD45RA/CD27 T cell subsets; assay: Telomerase activity (TRAP assay) with PDL-1/2 blockade and p38 inhibitor; assay type: cell-based, human; details: 4 days anti-CD3 and irradiated autologous APCs
Description: It was next investigated whether p38 or PD-1 signalling were involved in the decreased telomerase activity in EMRA CD8^+ T cells. […] Once again, CD8^+ T cell subsets were stimulated with anti-CD3 and irradiated autologous APCs in the presence of both inhibitors separately or together as in FIG. 4. […] The blockade of PD-1 signalling had no effect on telomerase activity in any of the subsets.
Purified CD8^+ T cell populations (2×10^5 cells) were snap-frozen after stimulation for 4 days with 0.5 μg/ml plate coated anti-CD3 (OKT3) and irradiated APCs. Telomerase activity was determined using the telomeric repeat amplification protocol (TRAP; TRAPeze telomerase detection kit; Chemicon) according to the protocol provided by the manufacturer. The absolute numbers of CD8^+ T cells were enumerated using trypan blue (Sigma). The TRAP assay was performed with samples adjusted to 500 Ki67^+ T cells per reaction to control for the different extents of proliferation in the different subsets after activation.
as §1, with “The p38 inhibitor BIRB796 was added to the 4 day cultures at a final concentration of 500 nM and 0.1% DMSO was used as control.” left out

Cc1ccc(-n2nc(C(C)(C)C)cc2NC(=O)Nc2ccc(OCCN3CCOCC3)c3ccccc23)cc1 [BIRB796]
proliferative activity (Ki67 staining) [1]: increased proliferative activity | telomerase activity ([2]; CD45RA+CD27− (EMRA) CD8+ population, 500 nM BIRB796, 10 μg/ml anti-PDL1/2, p<0.05, 4 donors): significant increase | telomerase activity ([2]; N, CM and EM CD8+ T cells, p38 signalling blocked (500 nM BIRB796), results not significant): trend towards increased telomerase activity
